Laboratory results from PMC6396489 (Cell Communication and Signaling : CCS, 2019).

Experiments:
Shp1 [1] = target: T1, Shp1 (Homo sapiens, UniProt P29350); experiment: SPR competition assay with free GroPIns4P; details: Shp1 1.2 μM; read-out: EC50 of competition with Shp1 binding to GroPIns4P-Bio chip
T1 construct: the C-terminal truncated form of human Shp1 cDNA (His-Shp1; amino acids 1–529); made in house; host or cells: E. coli BL21(DE3)
T1 sequence (P29350 1-529 isoform P29350-3): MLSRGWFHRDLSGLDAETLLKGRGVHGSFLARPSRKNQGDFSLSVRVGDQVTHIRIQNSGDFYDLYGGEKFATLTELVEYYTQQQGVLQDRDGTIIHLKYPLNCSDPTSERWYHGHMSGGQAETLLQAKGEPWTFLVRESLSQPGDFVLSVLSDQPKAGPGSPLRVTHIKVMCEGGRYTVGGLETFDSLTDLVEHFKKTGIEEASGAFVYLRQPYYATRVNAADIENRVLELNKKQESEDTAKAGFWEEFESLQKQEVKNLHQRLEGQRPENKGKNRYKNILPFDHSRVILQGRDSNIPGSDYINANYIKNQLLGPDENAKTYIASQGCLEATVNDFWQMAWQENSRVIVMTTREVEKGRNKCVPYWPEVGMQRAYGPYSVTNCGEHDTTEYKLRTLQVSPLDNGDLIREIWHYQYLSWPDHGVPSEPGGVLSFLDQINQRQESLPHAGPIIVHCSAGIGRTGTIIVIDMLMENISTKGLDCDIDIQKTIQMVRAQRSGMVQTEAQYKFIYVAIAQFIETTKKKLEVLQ
Description: For the competition experiments, SPR assays were performed at a fixed concentration of Shp1 (1.2 μM) in the presence of increasing concentrations of GroPIns4P (0.0 to 5.0 μM). Both Shp1 and GroPIns4P were dissolved in HBS-EP buffer and incubated for 10 min before injection onto the SA sensor chip. The flow was fixed to 20 μL/min, and the time of injection was 3 min. A solution of 2.0 mM glycine/HCl, pH 3.0, was used in the regeneration step to remove the analyte bond before reusing the sensor chip.

Shp1 [2] = target: T1, Shp1; experiment: Steady-state Trp fluorescence emission spectroscopy of purified Shp1; type: binding
Description: The absorption spectra of Shp1 were recorded using a Varian Cary 1 spectrophotometer. Steady-state fluorescence emission measurements were performed with a K2 fluorometer (ISS, Champaign, IL, USA) equipped with a two-cell temperature-controlled sample holder. To selectively excite Trp residues, the excitation wavelength was set at 295 nm with a slit width of 1 nm. To avoid the inner-filter effect, all steady-state fluorescence measurements were performed on Shp1 with optical densities at 295 nm less than 0.1 OD. All measurements were made at 25 °C with the temperature of the samples determined in the cuvette with an accuracy of ±0.2 °C. For each experiment, the Shp1 concentration was fixed at 1.2 μM, while GroPIns4P was varied from 0.0 to 5.0 μM. Thus, a 500 μL solution containing 1.2 μM Shp1 dissolved in PBS pH 7.4 was titrated by successive additions of GroPIns4P (dissolved in PBS buffer, pH 7.4). After each addition, the samples were incubated for 2 min and fluorescence emission spectra were recorded between 310 and 410 nm in triplicate. To exclude the influence of sample dilution, fluorescence titration experiments were performed by adding the same amount of PBS buffer in the total volume (500 μL).

Src = system: Src; design: method as in PMID 18722484; details: cited from earlier work
NIH3T3 cells = experiment: Wound-healing assay; type: cell-based
Description: To perform the wound-healing assay, NIH3T3 cells were seeded in 6-well tissue culture plates to a final density of 3 × 10^5 cells/well and maintained at 37 °C and 5% CO2 for 24 h until confluence before being starved overnight in DMEM containing 1% bovine serum. The cell monolayer was wounded by scratching with a 10 μL standard sterile pipette tip. The scratched monolayer was rinsed twice with DMEM containing 1% bovine serum to remove cell debris and incubated with or without 50 μM GroPIns4P. […] In detail, the input image was processed by applying a Sobel edge detector [26], obtaining a gradient image. A threshold process was then performed on the gradient image to obtain the foreground corresponding to the wound area. Particularly, all of the pixels of the gradient image with values less than the threshold θ were assumed to be pixels of the foreground (experimentally, θ is set to 4). Finally, procedures based on morphological operations were used to remove small regions and to fill holes of the wound area to complete detection and analysis.

Shp1 [3] = target: T1, Shp1; experiment: In-vitro dephosphorylation of Src by recombinant Shp1; type: biochemical; details: 50 μM, 10 min at 37 °C
Description: The immunoprecipitates were washed three times with lysis buffer, three times with lysis buffer without phosphatase inhibitors, and twice with phosphatase buffer (100 mM Na-Hepes, pH 7.4, 150 mM NaCl, 1 mM EDTA, and 10 mM DTT). The immunoprecipitates were then split equally into different tubes for treatment with Shp1 or buffer only. The treatment consisted of the addition of 2 μg of Shp1 to the immunoprecipitates in the absence or presence of 50 μM GroPIns4P and an incubation at 37 °C for different times. The reactions were terminated by the addition of concentrated SDS-sample buffer.

Shp1 and Src = system: T2, Shp1 and Src; experiment: Acceptor photobleaching FRET of Shp1-CFP and Src-YFP; type: cell-based; details: 50 μM for 5 min
T2 construct: expressed in transfected cells; host or cells: NIH3T3
Description: Acceptor photobleaching (apFRET) experiments were carried out with Leica SP5 confocal microscope, as follows: for CFP (donor) fluorescence detection, excitation at 458 nm and fluorescence detected at 470–490 nm. For YFP bleaching, a 514 nm argon laser was used. apFRET was measured by increase in CFP fluorescence intensity before (IDA) and after (ID) YFP photobleaching. To ensure reproducibility and reliability of CFP fluorescence measurements in the absence of acceptor (ID), YFP was photobleached to 10% of its initial fluorescence. The FRET efficiency was calculated as E = (ID − IDA)/ ID .

EC50 (Shp1 [1]): ~800 nM
EC50 (Shp1 [2]; Shp1 1.2 μM, GroPIns4P 0.0 to 5.0 μM, emission at 332 nm, read-out: apparent EC50 of Trp fluorescence quenching): ~600 nM
maximal quenching of the initial emission (Shp1 [2]; at 5 μM GroPIns4P): 18%
Compound: O=P(O)(O)OC1C(O)C(O)C(OP(=O)(O)OCC(O)CO)C(O)C1O (stereo not shown) [GroPIns4P, glycerophosphoinositol 4-phosphate]
direct interaction with Src (Src): no direct interaction
increase of wound closure compared to the control (NIH3T3 cells; 50 μM, 6 h after scratching): 65%
wound closure (NIH3T3 cells; 50 μM, at 30 h): almost complete
rescue of EGF effect in cells treated with cPLA2α inhibitor (NIH3T3 cells; EGF 10 ng/ml, cPLA2α inhibitor, 50 μM GroPIns4P): could be rescued
effect on Shp1 phosphatase activity against immunopurified Src (pTyr530) (Shp1 [3]): stimulated Shp1 activity and induced Src dephosphorylation
FRET efficiency in hot spots (Shp1 and Src; lamellar regions): over 20%
average FRET efficiency (Shp1 and Src; over the cells): 9%
